Assay results from ChEMBL document CHEMBL1201862, “PubChem BioAssay data set” (2004).
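A five-concentration, 48-hour dose response in 96-well plates underlies each endpoint, interpolated linearly between surrounding concentrations. GI50: concentration for 50% inhibition of growth.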 Active and inactive are the calls of the source. No stated cut-off is given here; in the data, active = GI50 up to about 1.1 µM and inactive = higher.

What was measured:
Assay in all cases: DTP human tumour cell line panel, 48 h
786-0 = system: 786-0
A498 = system: A498
A549 = system: A549
ACHN = system: ACHN
CCRF-CEM = system: CCRF-CEM
IGROV-1 = system: IGROV-1
K562 = system: K562
LXFL 529 = system: LXFL 529
OVCAR-8 = system: OVCAR-8
SF-539 = system: SF-539
SNB-75 = system: SNB-75
SNB-78 = system: SNB-78
SR = system: SR
TK-10 = system: TK-10
UACC-257 = system: UACC-257
UACC-62 = system: UACC-62

Measured: GI50

Cc1c(NC(=S)NC(=O)c2ccc([N+](=O)[O-])cc2)c(=O)n(-c2ccccc2)n1C
inactive: 786-0 > 100 µM | A498 > 100 µM | A549 > 100 µM | ACHN > 100 µM | CCRF-CEM > 100 µM | IGROV-1 > 100 µM | K562 > 100 µM | LXFL 529 > 100 µM | OVCAR-8 > 100 µM | SF-539 > 100 µM | SNB-75 > 100 µM | SNB-78 > 100 µM | SR > 100 µM | TK-10 > 100 µM | UACC-257 > 100 µM | UACC-62 > 100 µM

CCOc1ccc(/N=C/c2ccc3ccccc3n2)cc1
inactive: 786-0 > 100 µM | A498 > 100 µM | A549 > 100 µM | ACHN > 100 µM | CCRF-CEM 35.7 µM | IGROV-1 > 100 µM | K562 49.8 µM | LXFL 529 > 100 µM | OVCAR-8 > 100 µM | SF-539 > 100 µM | SNB-75 > 35.3 µM | SNB-78 > 100 µM | TK-10 > 100 µM | UACC-257 > 100 µM | UACC-62 > 100 µM

N#CC1=C(Cl)NC(Cl)=C(C#N)C1c1c(Cl)cccc1Cl
inactive: 786-0 25.1 µM | A498 94.6 µM | A549 29.1 µM | ACHN 39.1 µM | CCRF-CEM 24.4 µM | IGROV-1 37.9 µM | K562 19 µM | LXFL 529 30.8 µM | OVCAR-8 26.1 µM | SF-539 46 µM | SNB-75 34.4 µM | SNB-78 92.7 µM | SR 40.7 µM | TK-10 36.5 µM | UACC-257 22.1 µM | UACC-62 30.2 µM

C=C(/C=C/C=C(\CO)CCC=C(C)C)[C@H]1CCC2([C@H](CCCO)/C(=C(/C)C=O)CC[C@]2(C)O)[C@H]1O (stereo partly drawn)
inactive: 786-0 > 100 µM | A498 > 100 µM | A549 59 µM | ACHN > 100 µM | CCRF-CEM 38.2 µM | IGROV-1 > 100 µM | K562 51.4 µM | LXFL 529 > 100 µM | OVCAR-8 > 100 µM | SF-539 83.4 µM | SNB-75 58.6 µM | SNB-78 > 100 µM | TK-10 82 µM | UACC-257 > 100 µM | UACC-62 > 100 µM

C[C@]12CCC(=O)C=C1CC[C@@H]1C2CC[C@]2(C)c3nn(-c4ccccc4)nc3CC12 (stereo partly drawn)
inactive: 786-0 > 100 µM | A498 > 100 µM | A549 > 100 µM | ACHN > 100 µM | CCRF-CEM > 100 µM | IGROV-1 > 100 µM | K562 > 100 µM | LXFL 529 > 100 µM | OVCAR-8 > 100 µM | SF-539 > 100 µM | SNB-75 > 100 µM | SNB-78 > 100 µM | TK-10 > 100 µM | UACC-257 > 100 µM | UACC-62 > 100 µM

CC1=C(O)C(=O)C2C(=O)C1C(C)C2c1ccccc1 (stereo not drawn)
inactive: 786-0 > 100 µM | A498 > 100 µM | A549 > 100 µM | ACHN > 100 µM | CCRF-CEM > 100 µM | IGROV-1 > 100 µM | K562 > 100 µM | LXFL 529 > 100 µM | OVCAR-8 > 100 µM | SF-539 > 100 µM | SNB-75 > 100 µM | SNB-78 > 100 µM | SR > 100 µM | TK-10 > 100 µM | UACC-257 > 100 µM | UACC-62 > 100 µM

COC1OC(CO)C(O)C(OC(C)=O)C1NC(=O)N(CCCl)N=O (stereo not drawn)
inactive: 786-0 81.7 µM | A498 > 100 µM | A549 > 100 µM | ACHN > 100 µM | CCRF-CEM > 100 µM | IGROV-1 > 100 µM | K562 > 100 µM | LXFL 529 > 100 µM | OVCAR-8 > 100 µM | SF-539 34.3 µM | SNB-75 46 µM | SNB-78 > 100 µM | TK-10 > 100 µM | UACC-257 > 100 µM | UACC-62 24.8 µM

O=S(O)CCCCSSCCCCSSCCCCS(=O)O
inactive: 786-0 > 100 µM | A498 96.6 µM | A549 34 µM | ACHN 40.9 µM | CCRF-CEM 5.9 µM | IGROV-1 > 100 µM | K562 15 µM | LXFL 529 11.1 µM | OVCAR-8 18.9 µM | SF-539 66.2 µM | SNB-75 6.31 µM | SNB-78 15.7 µM | TK-10 26.4 µM | UACC-257 10.1 µM | UACC-62 12.1 µM
